# Biological target: T1, native human TRPA1 receptors (Homo sapiens, UniProt O75762)
# T1 construct: stably expressing native human TRPA1 receptors were used; endogenous in cells; host or cells: A549 human lung adenocarcinoma epithelial cell line
# Assay: PF-4840154 (1 μM)-induced Ca2+ fluorescence measurements in A549 cell line
# Type: cell-based
# Settings: for inhibition at 10 µM: 10 μM compound against 1 μM PF-4840154, A549 cells; for IC50: against PF-4840154 (1 μM)-evoked [Ca2+]i mobilization, A549 cells
# Protocol: PF-4840154 (1 μM)-Induced Ca^2+ Fluorescence Measurements in A549 Cell Line
# Human lung adenocarcinoma epithelial cell line (A549) stably expressing native human TRPA1 receptors were used. The cells were cultured in medium consisting of Eagle's minimal essential medium (EMEM) supplemented with 10% fetal bovine serum (FBS), penicillin (100 IU/ml), streptomycin ([…]), L-glutamine (2 mM), sodium bicarbonate (2.5 g/L) and HEPES (24 mM). Cells were kept at 37° C. in 5% CO2/humidified air. For the experiments the cells were seeded at a density of 16,000 cells/well into 96-well black, clear-bottom plates. After 24 hours incubation the cells were loaded with medium supplemented with 2.5 mM probenecid, 3 μM of the calcium sensitive fluorescent dye Fluo-4 AM and 0.01% pluronic acid, for 30 min at 37° C. Afterwards the loading solution was aspirated and 100 μl/well of assay buffer: Hank's Balanced Salt Solution (HBSS) supplemented with 2.5 mM probenecid and 500 μM Brilliant Black (Aldrich) was added. Stock solutions (100 mM) of ligands were made in Dimethyl Sulfoxide (DMSO) and stored at −20° C. Serial dilutions of ligands for experimental use were made in HBSS buffer. After placing both plates (cell culture and compound plate) into the FlexStation II (Molecular Device, Union City, Calif. 94587, US), fluorescence changes were measured. On-line additions were carried out in a volume of […]. To facilitate drug diffusion into the wells in antagonist type experiments, the studies were performed at 36.5° C. and three cycles of mixing (25 μl from each well moved up and down 3 times) were performed immediately after antagonist injection to the wells. All exemplified compounds were tested alone (to address residual agonistic activity) and against 1 μM of PF-4840154 to address inhibitory activity at the initial concentration of 10 μM. For selected examples the entire inhibitory concentration-response curves were constructed and the IC50 value calculated.
# PF-4840154 (1 μM) increased [Ca^2+] in the vast majority (95%) of cultured cells which were thereby identified as TRPA1 expressing cells.
# T1 sequence (O75762 whole entry): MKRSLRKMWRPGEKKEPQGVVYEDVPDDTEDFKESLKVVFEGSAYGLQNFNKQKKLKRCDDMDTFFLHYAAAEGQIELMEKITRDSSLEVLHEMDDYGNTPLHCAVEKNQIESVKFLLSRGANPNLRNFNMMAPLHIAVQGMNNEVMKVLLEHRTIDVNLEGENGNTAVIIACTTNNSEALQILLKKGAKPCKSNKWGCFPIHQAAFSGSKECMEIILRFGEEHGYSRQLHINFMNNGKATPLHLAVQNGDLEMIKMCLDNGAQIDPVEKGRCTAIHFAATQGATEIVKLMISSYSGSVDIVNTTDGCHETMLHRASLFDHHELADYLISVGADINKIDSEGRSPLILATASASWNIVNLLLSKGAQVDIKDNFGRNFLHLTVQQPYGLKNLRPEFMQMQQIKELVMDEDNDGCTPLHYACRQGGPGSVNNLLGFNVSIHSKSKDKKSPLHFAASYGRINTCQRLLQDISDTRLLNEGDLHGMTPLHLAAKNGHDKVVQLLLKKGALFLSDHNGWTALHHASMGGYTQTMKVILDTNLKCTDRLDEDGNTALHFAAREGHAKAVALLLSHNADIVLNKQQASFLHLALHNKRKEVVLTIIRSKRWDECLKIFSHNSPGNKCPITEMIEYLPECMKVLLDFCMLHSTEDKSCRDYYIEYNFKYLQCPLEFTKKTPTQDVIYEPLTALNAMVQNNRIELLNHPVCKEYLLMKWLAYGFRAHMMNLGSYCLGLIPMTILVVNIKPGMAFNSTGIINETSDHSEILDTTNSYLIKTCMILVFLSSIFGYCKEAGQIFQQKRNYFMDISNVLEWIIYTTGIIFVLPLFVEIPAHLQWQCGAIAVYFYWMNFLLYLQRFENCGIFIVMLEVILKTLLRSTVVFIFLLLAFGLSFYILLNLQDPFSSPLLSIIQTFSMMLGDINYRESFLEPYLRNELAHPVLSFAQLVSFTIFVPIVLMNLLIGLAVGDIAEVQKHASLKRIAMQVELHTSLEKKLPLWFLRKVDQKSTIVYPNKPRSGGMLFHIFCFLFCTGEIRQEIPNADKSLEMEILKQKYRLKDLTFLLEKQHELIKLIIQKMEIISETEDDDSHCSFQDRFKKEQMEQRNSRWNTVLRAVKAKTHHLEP
inhibition at 10 µM,IC50,SMILES
98%,0.135 µM,"C=C(C(=O)NCc1ccnc(-c2ccc(OC(F)(F)F)cc2)c1)N(C)S(=O)(=O)c1ccc(F)cc1 [Example 2, 2-[(4-fluorophenyl)sulfonyl-methyl-amino]-N-[[2-[4-(trifluoromethoxy)phenyl]-4-pyridyl]methyl]prop-2-enamide]"
95%,0.093 µM,"C=C(C(=O)NCc1ccnc(-c2ccc(OC(F)(F)F)cc2)c1)N(CC)S(=O)(=O)c1ccc(F)cc1 [Example 3, 2-[(4-fluorophenyl)sulfonyl-ethyl-amino]-N-[[2-[4-(trifluoromethoxy)phenyl]-4-pyridyl]methyl]prop-2-enamide]"
100%,0.355 µM,"C=C(C(=O)NCc1ccnc(-c2ccc(OC(F)(F)F)cc2)c1)N(C)S(=O)(=O)c1ccc(C)cc1 [Example 6, 2-(methyl(p-tolylsulfonyl)amino)-N-[[2-[4-(trifluoromethoxy)phenyl]-4-pyridyl]methyl]prop-2-enamide]"
100%,0.076 µM,"C=C(C(=O)NCc1cccc(-c2ccc(C(F)(F)F)cc2)c1)N(CC)S(=O)(=O)c1ccc(F)cc1 [Example 8, 2-[ethyl-(4-fluorophenyl)sulfonyl-amino]-N-[[3-[4-(trifluoromethyl)phenyl]phenyl]methyl]prop-2-enamide]"
98%,0.068 µM,"C=C(C(=O)NCc1cccc(-c2ccc(C(F)(F)F)cc2)c1)N(C)S(=O)(=O)c1ccc(Cl)cc1 [Example 9, 2-[(4-chlorophenyl)sulfonyl-methyl-amino]-N-[[3-[4-(trifluoromethyl)phenyl]phenyl]methyl]prop-2-enamide]"
100%,0.033 µM,"C=C(C(=O)NCc1ccnc(-c2ccc(C(F)(F)F)cc2)c1)N(CC)S(=O)(=O)c1ccc(Cl)s1 [Example 12, 2-[(5-chloro-2-thienyl)sulfonyl-ethyl-amino]-N-[[2-[4-(trifluoromethyl)phenyl]-4-pyridyl]methyl]prop-2-enamide]"
99%,0.182 µM,"C=C(C(=O)NCc1cc(-c2ccc(C(F)(F)F)cc2)nc(N2CCCC2)c1)N(C)S(=O)(=O)c1ccc(Cl)cc1 [Example 13, 2-[(4-chlorophenyl)sulfonyl-methyl-amino]-N-[[2-pyrrolidin-1-yl-6-[4-(trifluoromethyl)phenyl]-4-pyridyl]methyl]prop-2-enamide]"
99%,0.457 µM,"C=C(C(=O)NCc1cc(-c2ccc(OC(F)(F)F)cc2)nc(N2CCOCC2)c1)N(C)S(=O)(=O)c1ccc(Cl)cc1 [Example 16, 2-[(4-chlorophenyl)sulfonyl-methyl-amino]-N-[[2-morpholino-6-[4-(trifluoromethoxy)phenyl]-4-pyridyl]methyl]prop-2-enamide]"
98%,0.12 µM,"C=C(C(=O)NCc1cc(-c2ccc(OC(F)(F)F)cc2)nc(N2CCOCC2)c1)N(CC)S(=O)(=O)c1ccc(Cl)cc1 [Example 17, 2-[(4-chlorophenyl)sulfonyl-ethyl-amino]-N-[[2-morpholino-6-[4-(trifluoromethoxy)phenyl]-4-pyridyl]methyl]prop-2-enamide]"
100%,0.093 µM,"C=C(C(=O)NCc1cc(-c2ccc(OC(F)(F)F)cc2)nc(N2CCCC2)c1)N(CC)S(=O)(=O)c1ccc(F)cc1 [Example 18, 2-[ethyl-(4-fluorophenyl)sulfonyl-amino]-N-[[2-pyrrolidin-1-yl-6-[4-(trifluoromethoxy)phenyl]-4-pyridyl]methyl]prop-2-enamide]"
96%,0.251 µM,"C=C(C(=O)NCc1cc(-c2ccc(OC(F)(F)F)cc2)nc(-c2ccc(OC(F)(F)F)cc2)c1)N(C)S(=O)(=O)c1ccc(Cl)cc1 [Example 20, N-[[2,6-bis[4-(trifluoromethoxy)phenyl]-4-pyridyl]methyl]-2-[(4-chlorophenyl)sulfonyl-methyl-amino]prop-2-enamide]"

# From US9409864B2, “Sulfonamide TRPA1 receptor antagonists” (ARIO PHARMA LIMITED, priority 2013, dated 2016)
